Data taken from patent US20240391978A1, “APOLIPOPROTEIN FUSION PROTEINS FOR CELL-SPECIFIC IMMUNE REGULATION” (BIO-TRIP B.V., priority 2021, published 2024).
Entries after “also recorded” stand apart in the source; their conditions may differ. Blank lines part the entries; values can stand above or below the molecule they belong to.

Legend:
HEK-Blue™ IL4/IL13 cells = test: Human embryonic kidney 293 IL4 reporter cell assay (Example 2); type: cell-based; settings: IL4Rα/STAT6-inducible reporter
Experimental: This cell line has a fully active STAT6 pathway and carries a STAT6-inducible SEAP reporter gene. […] The levels of secreted SEAP can be determined with QUANTI-Blue™ (Invivogen). 180 μL DMEM with 10% FBS and 1% Pen-Strep containing […] was added per well in a 96-well-plate. Subsequently, 20 μL stimulus or vehicle was added and cells were incubated for 20-24 hours at 37° C. Subsequently, 180 μL QUANTI-Blue was added per well to a separate 96-well-plate (flat-bottom) and 20 μL of the cell supernatant was added. The plate was incubated for 1-3 hours at 37° C. and absorbance at 640 nm was measured on a Tecan Spark plate reader to determine SEAP levels.

primary human monocytes [1] = test: In vitro inflammation inhibition, LPS-stimulated monocytes; type: cell-based; settings: 1 hour pre-incubation with inhibitor (Table 2), IL4 + LPS 24 h
Experimental: (§1) For pharmacological inhibition experiments, the monocytes were pre-incubated for 1 hour with one of the inhibitors described in Table 2 before addition of the training stimulus.
In vitro inflammation inhibition: Monocytes were adhered to a flat-bottom cell culture plate for 1 hour and washed with warm PBS to remove any non-adherent cells and cell debris. […] Following the initial 24-hour stimulation, the supernatants were collected and stored at −20° C. until further analysis with ELISA for IL6 and TNF.
(§2) Cytokine and lactate measurements: TNF, IL6, and IL1Ra were measured in cell culture supernatants using duoset ELISA kits (R&D systems), according to the manufacturer's instructions. For lactate measurements, a fluorometric assay was used. 30 μl sample, medium control, or known standard was added to a black 96-well plate. Then, 30 μl reaction mix (PBS pH 7.4, horse radish peroxidase (0.2 U/ml), lactate oxidase (2 U/ml), Amplex red (100 μM; Fisher scientific)) was added and the reaction was incubated for 20 minutes in the dark at RT. Immediately thereafter, fluorescence was measured at 530/25 nm and 590/35 nm. Gen5 software (v3.03, BioTek) was used in conjunction with Microsoft Excel to calculate cytokine and lactate concentrations in the original samples.

primary human monocytes [2] = test: In vitro model of trained immunity in primary human monocytes; type: cell-based; settings: 1 hour pre-incubation with inhibitor (Table 2) before IL4 training
From the text: In vitro model of trained immunity in primary human monocytes: To induce trained immunity in primary human monocytes, a previously optimized and published method was used (Dominguez-Andres, J. et al. In vitro induction of trained immunity in adherent human monocytes. STAR Protoc 2, 100365, doi:10.1016/j.xpro.2021.100365 (2021); van Lier, D., Geven, C., Leijte, G. P. & Pickkers, P. Experimental human endotoxemia as a model of systemic inflammation. Biochimie 159, 99-106, doi:10.1016/j.biochi.2018.06.014 (2019)). Briefly: monocytes were adhered to a flat-bottom cell culture plate for 1 hour and washed with warm PBS to remove any non-adherent cells and cell debris. Then, they were stimulated (“trained”) for 24 hours with one of the stimuli detailed in Table 1, or medium only (“untrained” control).
as §1
Following the initial 24-hour stimulation, the cells were washed with warm PBS and warm cell culture medium was added. The monocytes were then allowed to rest and differentiate into macrophages for 5 days. On day 6, the induction of trained immunity was assessed. To this end, the cells were typically re-stimulated with LPS for an additional 24 hours to elicit cytokine production. The supernatants were collected and stored at −20° C. until further analysis, e.g. with ELISA for IL6 and TNF.
as §2

[3] = target: T1, IL4 receptor in human monocytes (Homo sapiens, UniProt P24394); test: Super-resolution fluorescence microscopy (dSTORM) of interactions with IL4 receptor; type: cell-based
T1 construct: Human monocytes were isolated from a healthy donor's peripheral blood as described above; endogenous in cells; host or cells: primary human monocytes from a healthy donor's peripheral blood
T1 sequence (P24394 26-825): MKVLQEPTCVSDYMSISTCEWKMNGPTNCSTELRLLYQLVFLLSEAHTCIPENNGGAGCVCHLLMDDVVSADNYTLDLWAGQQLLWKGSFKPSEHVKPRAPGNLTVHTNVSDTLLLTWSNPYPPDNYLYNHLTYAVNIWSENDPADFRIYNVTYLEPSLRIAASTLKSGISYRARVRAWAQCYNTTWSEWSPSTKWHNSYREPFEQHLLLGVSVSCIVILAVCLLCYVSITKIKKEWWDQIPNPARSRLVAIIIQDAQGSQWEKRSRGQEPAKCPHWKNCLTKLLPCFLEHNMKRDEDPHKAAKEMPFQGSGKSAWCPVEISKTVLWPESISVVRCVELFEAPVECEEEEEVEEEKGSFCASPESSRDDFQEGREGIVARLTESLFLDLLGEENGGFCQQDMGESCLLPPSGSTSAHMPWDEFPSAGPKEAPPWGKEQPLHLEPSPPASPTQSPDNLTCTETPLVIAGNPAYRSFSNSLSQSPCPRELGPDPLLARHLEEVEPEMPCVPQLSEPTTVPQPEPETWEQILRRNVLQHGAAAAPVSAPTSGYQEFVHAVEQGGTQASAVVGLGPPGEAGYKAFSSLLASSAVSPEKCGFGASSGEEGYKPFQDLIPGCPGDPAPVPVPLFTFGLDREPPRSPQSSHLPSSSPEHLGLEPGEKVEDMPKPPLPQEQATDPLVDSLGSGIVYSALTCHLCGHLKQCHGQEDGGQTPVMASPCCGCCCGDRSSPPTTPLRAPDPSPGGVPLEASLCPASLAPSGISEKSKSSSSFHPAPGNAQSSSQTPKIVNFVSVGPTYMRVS
Experimental: 100,000 monocytes were seeded per well on a cell culture-treated chambered coverslip (μ-Slide 8-well, IBID). After 2 hours of incubation at 37° C. […] Subsequently, the cells were washed with PBS and fixed with 4% PFA for 20 minutes. […] The stained cells were stored in PBS at 4° C. For the direct stochastic optical reconstruction microscopy (dSTORM), the cells were immersed in GLOXY imaging buffer (40 μg/ml catalase, 0.5 mg/ml glucose oxidase, 5% glucose and 0.01 M cysteamine in PBS, pH 8.0) for a few minutes before and during the imaging. The acquisition was performed in Total Internal Reflection Fluorescence (TIRF) mode, using ONI Nanoimager (ONI, Oxford, UK). It is equipped with a 100×/1.4NA oil immersion objective, a sCMOS camera, and, in this study, 488 nm (200 mW) and 640 nm (1000 mW) lasers were used. 10000 frames were acquired with a 10 ms exposure time with the field of view of 50×80 μm. Raw data were processed using the ThunderSTORM software, yielding images with a spatial resolution of 10 nm.

CD8 receptor = target: T2, CD8 receptor (Mus musculus, UniProt P01731+P10300); test: In vitro binding of VHHCD8-apoA1 in mice splenocytes; type: cell-based; settings: 30 minutes at 4° C.
T2 construct: Spleens were obtained from mice, cut into pieces, and strained through a 70 μm strainer; from tissue; host or cells: mouse spleen (freshly isolated splenocytes)
T2 sequence (P01731 28-247): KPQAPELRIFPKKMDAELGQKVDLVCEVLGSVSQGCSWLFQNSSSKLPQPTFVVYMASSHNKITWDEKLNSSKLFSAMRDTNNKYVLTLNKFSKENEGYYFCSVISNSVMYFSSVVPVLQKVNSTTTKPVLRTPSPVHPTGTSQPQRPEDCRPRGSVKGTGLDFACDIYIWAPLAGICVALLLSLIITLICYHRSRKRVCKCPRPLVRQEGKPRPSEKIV
T2 sequence (P10300 22-213): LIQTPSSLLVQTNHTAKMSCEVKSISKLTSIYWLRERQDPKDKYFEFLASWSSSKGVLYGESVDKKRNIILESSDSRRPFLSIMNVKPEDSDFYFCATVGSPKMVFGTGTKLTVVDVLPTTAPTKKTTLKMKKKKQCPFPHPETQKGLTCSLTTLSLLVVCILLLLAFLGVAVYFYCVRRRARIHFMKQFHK
Experimental: In vitro binding of VHHCD8-apoA1 in mice splenocytes: Spleens were obtained from mice, cut into pieces, and strained through a 70 μm strainer (Corning) multiple times to obtain a splenocyte suspension. Cells were spun down at 1500 rpm for 10 minutes, the supernatant was removed and the cells were dissolved in 2 mL 1× red blood cell lysis buffer (Thermofisher). Suspension was incubated at room temperature for 5 minutes, 10 mL Roswell Park Memorial Institute (RPMI) medium (Thermofisher) was added, and cells were again spun down at 1500 rpm for 10 minutes. Cells were then redissolved in RPMI medium and plated in a 96 wells plate at 150.000 cells/well.
The proteins were labeled by adding sulfo-cyanine5-maleimide (Lumiprobe) in dimethyl sulfoxide (DMSO) at a 5× molar excess. This mixture was incubated at room temperature for 2 hours. Excess dye was removed using a PD minitrap G-25 desalting column (Cytiva). Fluorescently labeled aNPs were formulated by adding 6.4 μg Dil for discoidal formulations and 21 μg Dil for spherical formulations (see section “formulating nanoparticles” of Example 2). […] (for aNPs) after which cells were harvested, washed, and stained for CD3 and CD4 and measured on Cytoflex (Beckman Coulter Inc.). Flow cytometry data was analyzed using FlowJo software (BD).

[4] = target: T3, CD8 receptor on mouse splenocytes (mouse, UniProt P01731 28-247; P10300 22-213); test: flow cytometry, fluorescently labelled protein on mouse splenocytes; upper panel 'MFI APC (CD8+) of CD3+ T cells'
T3 construct: whole, on cells
T3 sequence (P01731 28-247, chain 1 of 2): as the sequence (P01731 28-247) above
T3 sequence (P10300 22-213, chain 2 of 2): as the sequence (P10300 22-213) above
Experimental: The proteins were labeled by adding sulfo-cyanine5-maleimide (Lumiprobe) in dimethyl sulfoxide (DMSO) at a 5× molar excess. This mixture was incubated at room temperature for 2 hours. Excess dye was removed using a PD minitrap G-25 desalting column (Cytiva). […] Fluorescently labeled fusion proteins or aNPs and controls were added to the wells and incubated for 30 minutes at 4° C. (for proteins) or 37° C. (for aNPs) after which cells were harvested, washed, and stained for CD3 and CD4 and measured on Cytoflex (Beckman Coulter Inc.). Flow cytometry data was analyzed using FlowJo software (BD).

Molecule: apoA1-IL4: fusion protein of human apoA1 and human IL4 via flexible linker, 6his-tag and strep-tag (e.g. SEQ ID NO. 35)
SEAP production by HEK-IL4 reporter cells (HEK-Blue™ IL4/IL13 cells): prominently produced

Molecule: NC(=O)c1cnc(NCCc2ccc(O)c(Cl)c2)nc1NCc1ccccc1 [AS1517499, reference compound]
effect of inhibitor on IL4's inhibition of acute inflammation (TNF, IL6) (primary human monocytes [1]): partly restored cytokine production in acute inflammatory responses
effect of inhibitor on trained immunity induction by IL4 (TNF, IL6) (primary human monocytes [2]): did not affect trained immunity induction by IL4

binding to primary human monocytes (rim covering the cell surface) ([3]; Cy5-labeled, 2 h at 37° C.): confirmed
association with IL4Rα on the cell surface (co-clusters) ([3]; zoomed in section of the membrane): did not observe
Molecule: apoA1
Mean Fluorescence Intensity (MFI) of fluorescently labeled protein (CD8 receptor): did not show this dose dependent behavior

Molecule: CCC(=O)N1CCN(c2ccc(-n3c(=O)ccc4cnc5ccc(-c6cnc7ccccc7c6)cc5c43)cc2C(F)(F)F)CC1 [torin-1, Torin-1, reference compound]
effect of inhibitor on IL4's inhibition of acute inflammation (TNF, IL6) (primary human monocytes [1]): did not abrogate the effect of IL4 on acute inflammation
effect of inhibitor on trained immunity induction by IL4 (TNF, IL6) (primary human monocytes [2]): diminished the trained immunity responses; also recorded: significantly blunted

EC50 (read off the curve) [4]: ~5 nM
B1: VHHCD8-apoA1 fusion protein (VHH)
VHH: QVQLQESGGGLVQAGGSLRLSCAASGFTFDDYAIGWFRQAPGKEREGVSCINNSDGSGYVADSVKGRFTISSDNAKNTVYLQMNSLKPEDTAVYYCAAAGDGGCYYGLDYWGKGTQVTVSS
modifications: labelled with sulfo-cyanine5-maleimide (the linker between apoA1 and VHHCD8 comprises a cysteine)
notes: Fusion of an anti-CD8 VHH with apoA1, expressed in ClearColi; molecular weight 43.3 kDa
